± gives the expanded uncertainty stated by the source.
Details: 298.15 K; 101.3 kPa; Crystal; flotation method

O=[N+]([O-])c1ccc(O)c2ncccc12 [5-nitro-8-quinolinol]
mass density: 1489.7 ± 2.5 kg/m3
